In assay [1] the target is SARS-CoV-2 Main Protease (SARS-CoV-2) (UniProt P0DTD1).
For assay [2] the target is unchanged. Conditions: for inhibition: 50.0 µM.

Usually inhibition stands for the change of the read-out against control, counted positive when it falls. As usually defined, the IC50 is the point on the concentration scale where inhibition reaches its midpoint.

On to `O=[N+]([O-])c1cnc(Sc2nnc(-c3ccco3)n2-c2ccc(OCc3ccccc3)cc2)s1`, for which the inhibition in assay [1] (20.0 µM) was found to be 31.8%; in assay [1] (50.0 µM) it was 94.4%. Moreover, the IC50 in assay [2] was found to be 0.66 µM.
`CC(=O)Oc1ccccc1C(=O)Nc1ncc([N+](=O)[O-])s1`: the values for the inhibition in assay [1] (50.0 µM) and in assay [2] were -8.72% and 0%, respectively.
Turning to `CC(C)Cn1cc(NC(=O)NC2=NN(c3ccccc3)CC2)c2ccccc2c1=O`, the inhibition in assay [1] (20.0 µM) is 1.37%; in assay [1] (50.0 µM), 5.45%; in assay [2], -5.97%.
On the same counts, the results for `O=C(Nc1cccnc1)Nc1cc(O)cc(Cl)c1` are 4.43%, 21.2% and 19.4%.
With `CCOC(=O)c1c(C)n(S(C)(=O)=O)c2ccc(N(C(=O)c3ccco3)S(C)(=O)=O)cc12`, the inhibition in assay [1] (20.0 µM) came to 67.5%; in assay [1] (50.0 µM) it was 98.6%. The same compound returned an IC50 in assay [2] of 0.147 µM.
Consider `O=C(Nc1ccc([N+](=O)[O-])cc1Cl)c1cc(Cl)ccc1O`, for which the figures for the inhibition in assay [1] (50.0 µM) and in assay [2] were -22.8% and 21%, respectively.
As to `COC(=O)c1cc(Br)cc2c1NC(=O)C2=O`, the inhibition in assay [1] (20.0 µM) is -5.73%; in assay [1] (50.0 µM) it was -5.38%; in assay [2], 61.7%. The IC50 in assay [2] stood at 42.3 µM.
Regarding `O=C(Cc1cccc(Cl)c1)Nc1cccnc1`, the inhibition is 24.1% in assay [1] (20.0 µM), 40.9% in assay [1] (50.0 µM) and 52.4% in assay [2].
Take `CNCCN(C)C(=O)C(=O)N1Cc2ccccc2C(c2ccccc2)C1` (configuration not stated): the values for the inhibition in assay [1] (20.0 µM), in assay [1] (50.0 µM) and in assay [2] were -1.83%, -2.83% and 0%, respectively.
For the compound `Cc1cccc(NC(=O)CN2C(=O)C(=O)c3ccccc32)c1`, the figures for the inhibition in assay [1] (20.0 µM), in assay [1] (50.0 µM) and in assay [2] were -4.74%, -1.42% and 53.7%, respectively. The IC50 in assay [2] was 42.4 µM.
For the compound `O=C1C(=O)N(CCCOc2ccc(Cl)cc2)c2ccccc21`, the inhibition in assay [1] (20.0 µM) was -0.218%; in assay [1] (50.0 µM) it was 3.47%; in assay [2], 7.23%.
Turning to `CC(=O)N1CCN(CC(=O)Nc2cncc3ccccc23)CC1`, in assay [1], the IC50 was determined as 71.7 µM. Also, in assay [2], the IC50 is 72.5 µM and the inhibition is 42.4%.
In the case of `CNC(=O)c1ccc(CS(=O)(=O)NCC(F)(F)c2ccc(F)cc2F)cc1`, the inhibition turned out to be 6.87% in assay [1] (20.0 µM), 9.79% in assay [1] (50.0 µM) and 0% in assay [2].
On the same counts, the results for `O=C(NCc1cccnn1)Nc1cccc(-c2ncc3n2CCCC3)c1` are -2.92%, -5.29% and 0%.
On the same counts, the results for `CC(C)n1c(NC(=O)C2CCOc3ccccc32)nc2ccccc21` (configuration not stated) are 27.9%, -2.12% and 8.85%.
`CCCCN(CCCNC(=O)Nc1cn(CC(C)C)c(=O)c2ccccc12)c1ccccc1`: the inhibition in assay [1] (20.0 µM) is -4.26%; in assay [1] (50.0 µM) it was -3.25%. For the same compound, the IC50 in assay [2] was found to be 82.7 µM.
On the same counts, the results for `CC(C)Cn1cc(NC(=O)NCCc2ccc(Cl)cc2)c2ccccc2c1=O` are 22.5%, -1.58% and 95.9 µM.
`COC(=O)c1ccc(-c2cc(Cl)cc(CC(=O)Nc3cnccc3C)c2)c(OC)c1`: the IC50 turned out to be 12.7 µM in assay [1] and 12 µM in assay [2].
`COc1ccc(-c2cc(COc3cc(Cl)cc(CC(=O)Nc4cnccc4C)c3)on2)cc1`: the IC50 in assay [1] was 71.5 µM; in assay [2], 13.8 µM. Further, in assay [2], the inhibition came out at 67.3%.
Take `N#Cc1ccc(CN2CCC(C3CCNC3)CC2)cc1` (configuration not stated): the figures for the inhibition in assay [1] (20.0 µM) and in assay [1] (50.0 µM) were 97.1% and 98.9%, respectively. This compound returned an IC50 in assay [2] of 1.36 µM.
In the case of `CC(C)(C)NC(=O)CN1C(=O)C(=O)c2cccc(Br)c21`, the figures for the inhibition in assay [1] (20.0 µM), in assay [1] (50.0 µM) and in assay [2] were -2.41%, 1.28% and 0%, respectively.
Consider `Cc1cnc2c(-c3ccc4[nH]ncc4c3)c(-c3ccc(F)cc3)nn2c1`, for which the results for the inhibition in assay [1] (20.0 µM), in assay [1] (50.0 µM) and in assay [2] were -1.68%, -1% and 34.7%, respectively.
Regarding `O=C1CC(Oc2cc(Cl)cc(N(CCC3CCCCC3)C(=O)Nc3cncc4ccccc34)c2)N1` (configuration not stated), the IC50 was 0.105 µM in assay [1] and 1.58 µM in assay [2].
In the case of `Cc1cccc(COC(=O)c2cccc3c2NC(=O)C3=O)c1`, the inhibition in assay [1] (20.0 µM) was -1.1%; in assay [1] (50.0 µM), 0.0384%; in assay [2], 83.7%. Moreover, the IC50 in assay [2] came to 17.3 µM.
On to `C=CC(=O)N(c1ccc(C(F)(F)F)cc1)C(C(=O)NCCc1cccc(F)c1)c1cncc(O)c1` (configuration not stated), for which the inhibition in assay [1] (20.0 µM) was 26.8%; in assay [1] (50.0 µM), 44.9%. In addition, the IC50 in assay [2] turned out to be 17.3 µM.
For the compound `COc1ccc2c(c1F)NC(=O)C2=O`, the inhibition is -1.15% in assay [1] (20.0 µM), 3.02% in assay [1] (50.0 µM) and 7.79% in assay [2].
On to `O=C(NCc1ccc2c(c1)OCO2)c1nc(S(=O)(=O)Cc2ccccc2)ncc1Cl`, for which the inhibition was determined as 98.5% in assay [1] (20.0 µM) and 99.8% in assay [1] (50.0 µM). For the same compound, the IC50 in assay [2] came to 0.509 µM.
In the case of `O=C1C(=O)N(Cc2ncon2)c2ccc(Br)cc21`, the inhibition was -1.88% in assay [1] (20.0 µM), -2.4% in assay [1] (50.0 µM) and 94.1% in assay [2]. For the same compound, the IC50 in assay [2] is 3.79 µM.
Take `CCN(Cc1cccc(-c2ccncc2)c1)C(=O)Cn1nnc2ccccc21`: the inhibition was found to be 3.37% in assay [1] (20.0 µM), 15.6% in assay [1] (50.0 µM) and 0% in assay [2].
